Reference: patent US11117892B2, “Pyrrolo-pyridine derivative compound, method for preparing same, and pharmaceutical composition containing same as active ingredient for prevention or treatment of protein kinase-related diseases” (DAEGU-GYEONGBUK MEDICAL INNOVATION FOUNDATION, priority 2017, dated 2021)

Key:
Test in all cases: scanMAX Kinase assay panel
Assay type in all cases: binding
Settings in all cases: read-out: % control
JNK1 = JNK1 (Homo sapiens (Human), UniProt P45983)
Method: (§1) DiscoverX Co. was asked to measure the enzyme (kinase) selectivity, and the experiment was performed using scanMAX™ Kinase assay panel.
(§2) (Example Compound−Positive Control)/(Negative Control−Positive Control)×100 [Equation 1]
(§3) Herein, the positive control indicates the compound showing the % control of 0%, and the negative control indicates DMSO showing the % control of 100%.

SIK = SIK (Homo sapiens (Human), UniProt P57059)
Method: as §1, §2, §3

PKN1 = PKN1 (Homo sapiens (Human), UniProt Q16512)
Method: as §1, §2, §3

PIP5K2C = PIP5K2C (Homo sapiens (Human), UniProt Q8TBX8)
Method: as §1, §2, §3

[1] = biological target: RPS6KA5(Kin.Dom.2-C-terminal) (Homo sapiens (Human), UniProt O75582)
Sequence of RPS6KA5(Kin.Dom.2-C-terminal) (O75582 426-687): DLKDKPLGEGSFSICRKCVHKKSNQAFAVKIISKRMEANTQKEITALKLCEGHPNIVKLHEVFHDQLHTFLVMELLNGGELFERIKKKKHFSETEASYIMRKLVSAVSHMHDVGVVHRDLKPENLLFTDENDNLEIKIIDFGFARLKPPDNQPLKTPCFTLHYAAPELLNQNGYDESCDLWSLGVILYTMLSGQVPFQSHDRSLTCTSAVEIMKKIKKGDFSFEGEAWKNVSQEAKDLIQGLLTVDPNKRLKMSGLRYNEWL
Method: as §1, §2, §3

p38-delta = p38-delta (Homo sapiens (Human), UniProt O15264)
Method: as §1, §2, §3

WNK3 = WNK3 (Homo sapiens (Human), UniProt Q9BYP7)
Method: as §1, §2, §3

WNK2 = WNK2 (Homo sapiens (Human), UniProt Q9Y3S1)
Method: as §1, §2, §3

ULK2 = ULK2 (Homo sapiens (Human), UniProt Q8IYT8)
Method: as §1, §2, §3

[2] = biological target: RSK2(Kin.Dom.1-N-terminal) (Homo sapiens (Human), UniProt P51812)
Method: as §1, §2, §3

CSF1R-autoinhibited = CSF1R-autoinhibited (Homo sapiens (Human), UniProt P07333)
Method: as §1, §2, §3

PRKD2 = PRKD2 (Homo sapiens (Human), UniProt Q9BZL6)
Method: as §1, §2, §3

NIM1 = NIM1 (Homo sapiens (Human), UniProt Q8IY84)
Method: as §1, §2, §3

RET(M918T) = RET(M918T) (Homo sapiens (Human), UniProt P07949, M918T)
Method: as §1, §2, §3

PLK4 = PLK4 (Homo sapiens (Human), UniProt O00444)
Method: as §1, §2, §3

[3] = biological target: ABL1(F317L)-nonphosphorylated (Homo sapiens (Human), UniProt P00519, F317L)
Method: as §1, §2, §3

PIK3CD = PIK3CD (Homo sapiens (Human), UniProt O00329)
Method: as §1, §2, §3

MAPKAPK5 = MAPKAPK5 (Homo sapiens (Human), UniProt Q8IW41)
Method: as §1, §2, §3

[4] = biological target: ABL1(F317L)-phosphorylated (Homo sapiens (Human), UniProt P00519, F317L)
Method: as §1, §2, §3

TNK1 = TNK1 (Homo sapiens (Human), UniProt Q13470)
Method: as §1, §2, §3

BRSK1 = BRSK1 (Homo sapiens (Human), UniProt Q8TDC3)
Method: as §1, §2, §3

FGFR1 = FGFR1 (Homo sapiens (Human), UniProt P11362)
Method: as §1, §2, §3

SRC = SRC (Homo sapiens (Human), UniProt P12931)
Method: as §1, §2, §3

DAPK3 = DAPK3 (Homo sapiens (Human), UniProt O43293)
Method: as §1, §2, §3

MRCKA = MRCKA (Homo sapiens (Human), UniProt Q5VT25)
Sequence of MRCKA (Q5VT25 whole entry): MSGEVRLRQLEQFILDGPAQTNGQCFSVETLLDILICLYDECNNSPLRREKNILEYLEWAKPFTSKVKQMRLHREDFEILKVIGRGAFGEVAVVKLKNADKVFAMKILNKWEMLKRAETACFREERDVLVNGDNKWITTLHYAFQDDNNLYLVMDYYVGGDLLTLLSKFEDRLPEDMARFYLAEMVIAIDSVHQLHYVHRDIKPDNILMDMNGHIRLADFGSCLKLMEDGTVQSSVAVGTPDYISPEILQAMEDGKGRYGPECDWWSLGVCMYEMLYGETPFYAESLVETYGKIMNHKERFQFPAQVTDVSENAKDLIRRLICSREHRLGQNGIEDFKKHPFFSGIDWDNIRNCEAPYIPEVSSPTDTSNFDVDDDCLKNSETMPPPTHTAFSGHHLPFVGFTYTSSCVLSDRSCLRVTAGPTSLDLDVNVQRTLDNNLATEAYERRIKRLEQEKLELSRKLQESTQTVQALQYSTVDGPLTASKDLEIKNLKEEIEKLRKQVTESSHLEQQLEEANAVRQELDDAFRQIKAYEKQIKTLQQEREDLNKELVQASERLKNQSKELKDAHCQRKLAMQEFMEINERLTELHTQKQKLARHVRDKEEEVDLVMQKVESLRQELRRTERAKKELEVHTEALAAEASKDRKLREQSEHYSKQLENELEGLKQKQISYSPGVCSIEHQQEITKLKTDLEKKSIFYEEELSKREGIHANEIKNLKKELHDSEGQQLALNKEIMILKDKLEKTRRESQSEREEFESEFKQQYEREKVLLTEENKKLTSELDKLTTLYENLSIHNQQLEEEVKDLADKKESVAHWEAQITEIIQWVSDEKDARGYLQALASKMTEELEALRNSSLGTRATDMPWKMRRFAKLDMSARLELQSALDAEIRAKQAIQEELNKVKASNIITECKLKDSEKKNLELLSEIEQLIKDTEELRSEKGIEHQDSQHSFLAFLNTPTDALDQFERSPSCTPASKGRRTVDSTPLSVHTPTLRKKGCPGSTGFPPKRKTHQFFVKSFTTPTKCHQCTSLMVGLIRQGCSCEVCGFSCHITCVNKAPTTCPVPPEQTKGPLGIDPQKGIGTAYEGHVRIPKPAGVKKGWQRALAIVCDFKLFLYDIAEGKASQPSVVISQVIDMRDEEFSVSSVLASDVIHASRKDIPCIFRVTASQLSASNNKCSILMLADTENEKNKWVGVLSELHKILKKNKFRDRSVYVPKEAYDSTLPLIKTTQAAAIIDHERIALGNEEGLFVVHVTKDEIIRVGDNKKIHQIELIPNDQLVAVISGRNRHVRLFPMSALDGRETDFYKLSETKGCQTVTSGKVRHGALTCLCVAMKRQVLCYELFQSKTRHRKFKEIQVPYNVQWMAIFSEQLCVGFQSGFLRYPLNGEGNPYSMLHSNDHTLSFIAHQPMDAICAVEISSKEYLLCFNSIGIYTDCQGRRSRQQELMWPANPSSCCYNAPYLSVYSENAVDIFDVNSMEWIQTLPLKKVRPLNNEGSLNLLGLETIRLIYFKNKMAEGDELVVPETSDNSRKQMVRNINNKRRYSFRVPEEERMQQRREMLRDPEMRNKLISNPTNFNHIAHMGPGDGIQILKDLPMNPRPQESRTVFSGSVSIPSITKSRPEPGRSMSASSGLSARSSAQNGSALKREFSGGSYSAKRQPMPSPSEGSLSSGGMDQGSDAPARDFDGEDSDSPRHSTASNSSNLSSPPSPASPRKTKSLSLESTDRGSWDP
Method: as §1, §2, §3

MAPKAPK2 = MAPKAPK2 (Homo sapiens (Human), UniProt P49137)
Method: as §1, §2, §3

ABL2 = ABL2 (Homo sapiens (Human), UniProt P42684)
Method: as §1, §2, §3

MST3 = MST3 (Homo sapiens (Human), UniProt Q9Y6E0)
Method: as §1, §2, §3

SLK = SLK (Homo sapiens (Human), UniProt Q9H2G2)
Method: as §1, §2, §3

NIK = NIK (Homo sapiens (Human), UniProt Q99558)
Method: as §1, §2, §3

CASK = CASK (Homo sapiens (Human), UniProt O14936)
Method: as §1, §2, §3

PKAC-alpha = PKAC-alpha (Homo sapiens (Human), UniProt P17612)
Method: as §1, §2, §3

NLK = NLK (Homo sapiens (Human), UniProt Q9UBE8)
Method: as §1, §2, §3

ROCK2 = ROCK2 (Homo sapiens (Human), UniProt O75116)
Method: as §1, §2, §3

PFTK1 = PFTK1 (Homo sapiens (Human), UniProt O94921)
Method: as §1, §2, §3

MELK = MELK (Homo sapiens (Human), UniProt Q14680)
Method: as §1, §2, §3

AAK1 = AAK1 (Homo sapiens (Human), UniProt Q2M2I8)
Sequence of AAK1 (Q2M2I8 whole entry): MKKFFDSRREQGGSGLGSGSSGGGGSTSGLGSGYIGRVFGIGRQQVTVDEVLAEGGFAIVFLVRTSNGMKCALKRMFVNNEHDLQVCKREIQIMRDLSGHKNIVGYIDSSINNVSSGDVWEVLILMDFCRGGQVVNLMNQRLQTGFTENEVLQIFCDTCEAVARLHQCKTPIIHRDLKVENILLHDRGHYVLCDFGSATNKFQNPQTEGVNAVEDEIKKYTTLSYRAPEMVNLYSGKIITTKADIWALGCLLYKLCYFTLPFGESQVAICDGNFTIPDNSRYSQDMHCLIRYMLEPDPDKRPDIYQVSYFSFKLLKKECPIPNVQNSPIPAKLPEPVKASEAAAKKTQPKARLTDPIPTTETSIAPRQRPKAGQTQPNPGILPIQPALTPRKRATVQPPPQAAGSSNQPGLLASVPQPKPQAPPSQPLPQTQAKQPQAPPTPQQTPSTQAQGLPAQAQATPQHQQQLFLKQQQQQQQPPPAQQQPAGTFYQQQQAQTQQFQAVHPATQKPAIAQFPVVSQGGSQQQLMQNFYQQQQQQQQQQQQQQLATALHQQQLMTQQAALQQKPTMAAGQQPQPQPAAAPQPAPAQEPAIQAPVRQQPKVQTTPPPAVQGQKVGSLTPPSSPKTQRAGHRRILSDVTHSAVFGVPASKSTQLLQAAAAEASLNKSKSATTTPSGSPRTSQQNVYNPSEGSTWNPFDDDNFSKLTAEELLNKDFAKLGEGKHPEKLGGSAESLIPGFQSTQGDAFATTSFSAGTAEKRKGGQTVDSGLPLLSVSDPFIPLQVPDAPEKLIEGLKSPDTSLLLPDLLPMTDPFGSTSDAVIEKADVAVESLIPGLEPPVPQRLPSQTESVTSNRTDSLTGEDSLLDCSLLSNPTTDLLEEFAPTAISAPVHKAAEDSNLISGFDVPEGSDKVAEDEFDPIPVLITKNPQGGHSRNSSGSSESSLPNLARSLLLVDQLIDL
Method: as §1, §2, §3

BIKE = BIKE (Homo sapiens (Human), UniProt Q9NSY1)
Sequence of BIKE (Q9NSY1 whole entry): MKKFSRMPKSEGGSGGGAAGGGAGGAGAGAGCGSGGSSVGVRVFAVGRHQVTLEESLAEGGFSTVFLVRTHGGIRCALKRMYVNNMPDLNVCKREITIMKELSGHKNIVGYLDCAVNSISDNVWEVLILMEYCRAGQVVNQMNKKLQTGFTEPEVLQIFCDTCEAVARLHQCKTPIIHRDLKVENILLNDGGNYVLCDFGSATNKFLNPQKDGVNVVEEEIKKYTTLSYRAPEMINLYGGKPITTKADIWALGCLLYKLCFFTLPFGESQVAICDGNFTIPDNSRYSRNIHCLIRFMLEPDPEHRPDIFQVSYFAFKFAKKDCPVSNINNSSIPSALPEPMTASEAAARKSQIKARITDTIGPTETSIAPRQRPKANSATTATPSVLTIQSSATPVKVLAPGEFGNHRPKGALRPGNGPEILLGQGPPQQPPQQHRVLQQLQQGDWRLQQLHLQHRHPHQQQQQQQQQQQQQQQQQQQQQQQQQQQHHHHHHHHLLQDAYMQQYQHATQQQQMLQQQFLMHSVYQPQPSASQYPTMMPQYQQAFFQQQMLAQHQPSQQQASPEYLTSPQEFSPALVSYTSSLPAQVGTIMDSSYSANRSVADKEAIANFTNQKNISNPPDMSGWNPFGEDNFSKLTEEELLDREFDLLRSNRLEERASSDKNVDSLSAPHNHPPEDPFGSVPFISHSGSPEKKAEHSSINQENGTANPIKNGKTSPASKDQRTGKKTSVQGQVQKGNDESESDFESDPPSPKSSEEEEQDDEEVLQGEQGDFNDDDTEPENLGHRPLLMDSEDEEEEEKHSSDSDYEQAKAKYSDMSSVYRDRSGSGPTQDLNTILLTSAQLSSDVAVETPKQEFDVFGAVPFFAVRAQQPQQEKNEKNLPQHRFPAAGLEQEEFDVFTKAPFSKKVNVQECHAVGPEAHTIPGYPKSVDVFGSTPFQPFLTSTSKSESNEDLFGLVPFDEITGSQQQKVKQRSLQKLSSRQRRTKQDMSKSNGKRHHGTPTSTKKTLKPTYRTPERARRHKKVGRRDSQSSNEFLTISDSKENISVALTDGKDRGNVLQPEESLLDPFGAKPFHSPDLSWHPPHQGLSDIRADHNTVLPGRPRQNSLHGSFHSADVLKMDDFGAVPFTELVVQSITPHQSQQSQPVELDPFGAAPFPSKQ
Method: as §1, §2, §3

CSNK1G2 = CSNK1G2 (Homo sapiens (Human), UniProt P78368)
Sequence of CSNK1G2 (P78368 whole entry): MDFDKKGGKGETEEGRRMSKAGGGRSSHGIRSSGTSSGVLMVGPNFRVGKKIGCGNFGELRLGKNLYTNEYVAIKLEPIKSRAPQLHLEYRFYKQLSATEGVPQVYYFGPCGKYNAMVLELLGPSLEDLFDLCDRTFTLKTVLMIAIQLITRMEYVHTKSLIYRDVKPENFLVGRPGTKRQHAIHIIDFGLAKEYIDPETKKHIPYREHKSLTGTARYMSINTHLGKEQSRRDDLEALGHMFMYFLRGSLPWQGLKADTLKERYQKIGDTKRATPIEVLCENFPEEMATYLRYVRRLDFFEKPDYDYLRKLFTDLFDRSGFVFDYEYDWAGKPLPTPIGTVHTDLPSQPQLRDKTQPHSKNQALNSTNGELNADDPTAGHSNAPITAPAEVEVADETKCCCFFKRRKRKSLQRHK
Method: as §1, §2, §3

Sequence of JNK1 (P45983 whole entry): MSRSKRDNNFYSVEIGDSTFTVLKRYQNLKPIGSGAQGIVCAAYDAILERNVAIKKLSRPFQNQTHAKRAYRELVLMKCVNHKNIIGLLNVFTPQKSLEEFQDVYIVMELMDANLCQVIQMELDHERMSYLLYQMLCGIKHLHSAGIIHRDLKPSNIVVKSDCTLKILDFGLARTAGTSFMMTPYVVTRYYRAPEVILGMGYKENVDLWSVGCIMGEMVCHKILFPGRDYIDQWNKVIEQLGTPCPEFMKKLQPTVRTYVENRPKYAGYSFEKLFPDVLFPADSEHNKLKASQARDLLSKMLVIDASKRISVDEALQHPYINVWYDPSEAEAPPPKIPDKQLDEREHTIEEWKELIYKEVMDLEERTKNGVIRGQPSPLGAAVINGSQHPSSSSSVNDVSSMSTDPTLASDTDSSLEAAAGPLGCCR

Row | Compound | remaining binding at 1 µM (JNK1) | remaining binding at 1 µM (SIK) | remaining binding at 1 µM (PKN1) | remaining binding at 1 µM (PIP5K2C) | remaining binding at 1 µM [1] | remaining binding at 1 µM (p38-delta) | remaining binding at 1 µM (WNK3) | remaining binding at 1 µM (WNK2) | remaining binding at 1 µM (ULK2) | remaining binding at 1 µM [2] | remaining binding at 1 µM (CSF1R-autoinhibited) | remaining binding at 1 µM (PRKD2) | remaining binding at 1 µM (NIM1) | remaining binding at 1 µM (RET(M918T)) | remaining binding at 1 µM (PLK4) | remaining binding at 1 µM [3] | remaining binding at 1 µM (PIK3CD) | remaining binding at 1 µM (MAPKAPK5) | remaining binding at 1 µM [4] | remaining binding at 1 µM (TNK1) | other results
1 | CCNc1cc(Nc2ccc(C(=O)N3CCC(N4CCOCC4)CC3)cc2OC)nc2[nH]cc(C#N)c12 [Example 18, 4-(ethylamino)-6-((2-methoxy-4-(4-morpholinopiperidine-1-carbonyl)phenyl)amino)-1H-pyrrolo[2,3-b]pyridine-3-carbonitrile] | 0% | 100% | 85% | 16% | 10% | 99% | 82% | 91% | 67% | 78% | 51% | 2% | 81% | 99% | 40% | 95% | 100% | 43% | 100% | 81% | remaining binding at 1 µM (BRSK1): 94%; remaining binding at 1 µM (FGFR1): 87%; remaining binding at 1 µM (SRC): 100%; remaining binding at 1 µM (DAPK3): 14%; remaining binding at 1 µM (MRCKA): 100%; remaining binding at 1 µM (MAPKAPK2): 21%; remaining binding at 1 µM (ABL2): 93%; remaining binding at 1 µM (MST3): 88%; remaining binding at 1 µM (SLK): 95%; remaining binding at 1 µM (NIK): 25%; remaining binding at 1 µM (CASK): 76%; remaining binding at 1 µM (PKAC-alpha): 70%; remaining binding at 1 µM (NLK): 84%; remaining binding at 1 µM (ROCK2): 7.8%; remaining binding at 1 µM (PFTK1): 89%; remaining binding at 1 µM (MELK): 62%; remaining binding at 1 µM (AAK1): 69%; remaining binding at 1 µM (BIKE): 90%; remaining binding at 1 µM (CSNK1G2): 27%
2 | CCNc1cc(Nc2ccc(C(=O)N3CCC(N4CCOCC4)CC3)cc2OC)nc2[nH]cc(C(F)(F)F)c12 [Example 57, (4-((4-(ethylamino)-3-(trifluoromethyl)-1H-pyrrolo[2,3-b]pyridin-6-yl)amino)-3-methoxyphenyl) (4-morpholinopiperidin-1-yl)methanone] | 40% | 90% | 71% | 71% | 83% | 85% | 100% | 100% | 93% | 96% | 83% | 83% | 100% | 100% | 47% | 86% | 100% | 100% | 100% | 100% | remaining binding at 1 µM (BRSK1): 94%; remaining binding at 1 µM (FGFR1): 87%; remaining binding at 1 µM (SRC): 100%; remaining binding at 1 µM (DAPK3): 86%; remaining binding at 1 µM (MRCKA): 95%; remaining binding at 1 µM (MAPKAPK2): 51%; remaining binding at 1 µM (ABL2): 98%; remaining binding at 1 µM (MST3): 84%; remaining binding at 1 µM (SLK): 80%; remaining binding at 1 µM (NIK): 82%; remaining binding at 1 µM (CASK): 88%; remaining binding at 1 µM (PKAC-alpha): 100%; remaining binding at 1 µM (NLK): 84%; remaining binding at 1 µM (ROCK2): 100%; remaining binding at 1 µM (PFTK1): 95%; remaining binding at 1 µM (MELK): 69%; remaining binding at 1 µM (AAK1): 54%; remaining binding at 1 µM (BIKE): 85%; remaining binding at 1 µM (CSNK1G2): 86%
